# Test results taken from patent US6107064A, “Process for producing xanthine derivatives with bacteria and fungi” (Kyowa Hakko Kogyo Co., Ltd., priority 1994, dated 2000).
# pKi: −log10 of the molar value.
# Legend:
# [1] = system: Wistar rats, glycerol-induced renal insufficiency; assay: Renal-Protecting Activity (Glycerol-Induced Renal Insufficiency Model); format: in vivo, rat (Wistar, male); conditions: for effect on increases in serum creatinine and serum urea-nitrogen: 10 mg/kg, ip
# Protocol: Renal insufficiency is the condition that homeostasis of a body fluid is unable to be maintained by disorder of renal function. It is known that subcutaneous or intramuscular administration of glycerol to rats induces acute renal insufficiency characterized by renal tubular disturbance [Can. J. Physiol.
# Male Wistar rats were fisted from both food and water for 18 hours. A test compound was intraperitoneally administered to the rats (dose; 0.1 ml/100 g). After 30 minutes, the rats were anesthetized with ether and the back skin was picked up and 0.8 ml/100 […] of 50% glycerol was subcutaneously administered. Twenty four hours after the glycerol injection, the rats were anesthetized with ether and 5 ml of blood was collected from the descending aorta. A sample of the collected blood was allowed to stand for 30 minutes or longer and then centrifuged at 3,000 rpm for 10 minutes to obtain the serum. Creatinine in the serum sample and urea nitrogen in the serum were determined with an autoanalyzer (AU510, Olympus Optical Co., Ltd.) using Olympus AU500/550 exclusive reagent "Katayama" in both of creatinine test (Jaffe' method) and urea-nitrogen test (enzyme method).
# adenosine A1 receptor = target: T1, adenosine A1 receptor (Rattus norvegicus, UniProt P25099); assay: Adenosine A1 Receptor Binding Test (3H-CHA binding, corpus striatum); conditions: 3H-CHA 1.1 nM, 25° C., 90 minutes
# T1 construct: from tissue; host or cells: rat corpus striatum, washed membrane suspension
# T1 sequence (P25099 1-326): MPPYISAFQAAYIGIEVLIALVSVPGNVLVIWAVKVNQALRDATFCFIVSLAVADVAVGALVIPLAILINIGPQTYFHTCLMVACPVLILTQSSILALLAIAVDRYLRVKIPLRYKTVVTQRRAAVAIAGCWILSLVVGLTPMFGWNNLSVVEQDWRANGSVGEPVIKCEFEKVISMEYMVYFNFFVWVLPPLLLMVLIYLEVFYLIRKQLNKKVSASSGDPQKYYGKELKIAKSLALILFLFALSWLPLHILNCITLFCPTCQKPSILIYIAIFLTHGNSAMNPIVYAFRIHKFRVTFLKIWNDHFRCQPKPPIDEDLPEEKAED
# Protocol: The test was conducted according to the method of Bruns et al. [Mol. Pharmacol., 29, 331 (1986)] with slight modification.
# Corpus striatum of a rat was suspended in ice-cooled 50 mM Tris hydroxymethyl aminomethane hydrochloride (Tris HCl) buffer (pH 7.7) by using Polytron homogenizer (manufactured by Kinematicas Co.) The suspension was centrifuged (50,000×g, 10 minutes), and the precipitate was suspended again in the same amount of 50 mM Tris HCl buffer. The suspension was centrifuged under the same conditions, and the final precipitate was suspended once again in 50 mM Tris HCl buffer to give a tissue concentration of 100 mg (wet weight)/ml. The tissue suspension was allowed to stand at 37° C. for 30 minutes in the presence of 0.02 unit/mg tissue of adenosine deaminase (manufactured by Sigma Co.) The tissue suspension was centrifuged (50,000×g, 10 minutes) and to the obtained precipitates was added 50 mM Tris HCl buffer to give a tissue concentration of 10 mg (wet weight)/ml.
# To 1 ml of the tissue suspension thus prepared were added 50 μl of cyclohexyladenosine labeled with tritium (^3 H-CHA: 27 Ci/mmol, manufactured by New England Nuclear) (final concentration: 1.1 nM) and 50 μl of a test compound. The resulting mixture was allowed to stand at 25° C. for 90 minutes and then rapidly filtered by suction through a glass fiber filter (GF/C, manufactured by Whatman Co.) The filter was immediately washed three times with 5 ml each of ice-cooled 50 mM Tris HCl buffer, and transferred to a vial, and a scintillator (EX-H, manufactured by Wako Pure Chemical Industries, Ltd.) was added thereto. The radioactivity on the filter was determined with a liquid scintillation counter (manufactured by Packard Instrument Co.)
# The inhibition rate (Ki value) of the test compound against the binding of A1 receptors (^3 H-CHA binding) was calculated by the equation of Cheng-Prusoff. [formula] [Notes]1. "B" means the amount of radioactivity of ^3 H-CHA bound in the presence of a test compound at various concentrations.
# 2. "T" means the amount of radioactivity of ^3 H-CHA bound in the absence of a test compound.
# 3. "IN" means the amount of radioactivity of ^3 H-CHA bound in the presence of 10 μM N^6 -(L-2-phenylisopropyl)-adenosine (Sigma Co.)
# Wistar rats = assay: Diuretic Effect; format: in vivo, rat (Wistar, male); conditions: for Increase in amount of K+ excreted / Increase in amount of Na+ excreted / Increase in amount of urine: control 0
# Protocol: The experiment was carried out by using Wistar rats (male; 150 to 300 g). The rats were starved for 18 hours prior to the administration of a test compound (n=4 to 5). After a test compound dissolved in 0.4% methanol, 1% dimethylsulfoxde, and 0.01N sodium hydroxide/physiological saline was administered intravenously to the rat, the physiological saline (25 ml/kg) was orally administered thereto. Alternatively, a test compound dissolved in the physiological saline (25 ml/kg) was orally administered to the rats. Urine was collected from the rats during 4 hours after the oral administration, and urine volume was measured by a graduated measuring cylinder, and the electrolytes (Na^+ and K^+) in the urine were determined by flame photometer (775A, manufactured by Hitachi, Ltd.) The test results are shown in Tables 3 and 4.
# [2] = 0.01 mg/kg po, 4 hours, control 1.00
# [3] = 0.1 mg/kg po, 4 hours, control 1.00
# [4] = 1.6 mg/kg po, 4 hours, control 1.00
# [5] = 1 mg/kg ip, 24 hours after glycerol, control 4.57 ± 0.31, ***p < 0.001 (Student's t test)
# [6] = 1 mg/kg ip, 24 hours after glycerol, control 164.9 ± 10.3, ***p < 0.001 (Student's t test)
smiles,measurement,setting,value
"Cn1c(=O)c2[nH]cnc2n(C)c1=O [aminophylline, reference compound]",effect on increases in serum creatinine and serum urea-nitrogen,[1],only a weak inhibitory tendancy
"CCCn1c(=O)c2[nH]c([C@@]34C[C@H]5C[C@@H]3C[C@@H](C4)[C@@H]5O)nc2n(CCC)c1=O [Compound 1, 8-(Trans-9-hydroxy-3-tricyclo[3.3.1.0^3,7]nonyl)-1,3-dipropylxanthine]",pKi,adenosine A1 receptor,9.64
same,Amount of K+ excreted,"Wistar rats; 3 μg/kg iv, n = 5, 4 hours, control 1.47 ± 0.31",1.24 ± 0.10 mEq/kg
same,Na+/K+,"Wistar rats; 3 μg/kg iv, n = 5, 4 hours, control 1.52",2.99
same,Amount of Na+ excreted,"Wistar rats; 3 μg/kg iv, n = 5, 4 hours, control 2.23 ± 0.61, **p < 0.01 (Dunnett's test)",3.71 ± 0.12 mEq/kg
same,Amount of urine,"Wistar rats; 3 μg/kg iv, n = 5, 4 hours, control 14.5 ± 1.8, *p < 0.05 (Dunnett's test)",26.4 mL/kg
same,Increase in amount of K+ excreted,"Wistar rats; 0.01 mg/kg po, 4 hours",11%
same,Increase in amount of Na+ excreted,"Wistar rats; 0.01 mg/kg po, 4 hours",139%
same,Increase in amount of urine,"Wistar rats; 0.01 mg/kg po, 4 hours",99%
same,Na+/K+,Wistar rats; [2],2.16
same,Increase in amount of K+ excreted,"Wistar rats; 0.1 mg/kg po, 4 hours",-9%
same,Increase in amount of Na+ excreted,"Wistar rats; 0.1 mg/kg po, 4 hours",148%
same,Increase in amount of urine,"Wistar rats; 0.1 mg/kg po, 4 hours",105%
same,Na+/K+,Wistar rats; [3],2.72
same,Amount of creatinine in serum,"[1]; 0.01 mg/kg ip, 24 hours after glycerol; control 4.35 ± 0.23; **^1) p < 0.01 (Dunnett's test)",2.00 ± 0.21 mg/dL
same,Amount of urea-nitrogen in serum,"[1]; 0.01 mg/kg ip, 24 hours after glycerol; control 139.7 ± 10.2; marked ***^1)",69.9 ± 8.4 mg/dL
same,Amount of creatinine in serum,"[1]; 0.1 mg/kg ip, 24 hours after glycerol; control 4.35 ± 0.23; **^1) p < 0.01 (Dunnett's test)",2.32 ± 0.16 mg/dL
same,Amount of urea-nitrogen in serum,"[1]; 0.1 mg/kg ip, 24 hours after glycerol; control 139.7 ± 10.2; **^1) p < 0.01 (Dunnett's test)",64.4 ± 4.5 mg/dL
"CCCn1c(=O)c2[nH]c([C@@]34C[C@H]5C[C@@H]3C[C@@H](C4)[C@H]5O)nc2n(CCC)c1=O [Compound 4, 8-(cis-9-hydroxy-3-tricyclo[3.3.1.0^3,7]nonyl)-1,3-dipropylxanthine]",pKi,adenosine A1 receptor,9.51
same,Increase in amount of K+ excreted,"Wistar rats; 0.01 mg/kg po, 4 hours",43%
same,Increase in amount of Na+ excreted,"Wistar rats; 0.01 mg/kg po, 4 hours",167%
same,Increase in amount of urine,"Wistar rats; 0.01 mg/kg po, 4 hours",200%
same,Na+/K+,Wistar rats; [2],1.86
same,Increase in amount of K+ excreted,"Wistar rats; 1.6 mg/kg po, 4 hours",35%
same,Increase in amount of Na+ excreted,"Wistar rats; 1.6 mg/kg po, 4 hours",180%
same,Increase in amount of urine,"Wistar rats; 1.6 mg/kg po, 4 hours",232%
same,Na+/K+,Wistar rats; [4],2.07
same,Amount of creatinine in serum,[1]; [5],2.00 ± 0.17 mg/dL
same,Amount of urea-nitrogen in serum,[1]; [6],76.0 ± 8.8 mg/dL
"CCCn1c(=O)c2[nH]c([C@]34C[C@@H]5C[C@H](C3)[C@@H](O)[C@H]4C5)nc2n(CCC)c1=O (relative stereo) [Compound 2, 8-(trans-6-hydroxy-3-tricyclo[3.3.1.0^3,7]nonyl)-1,3-dipropylxanthine]",pKi,adenosine A1 receptor,9.62
same,Increase in amount of K+ excreted,"Wistar rats; 0.1 mg/kg po, 4 hours",12%
same,Increase in amount of Na+ excreted,"Wistar rats; 0.1 mg/kg po, 4 hours",107%
same,Increase in amount of urine,"Wistar rats; 0.1 mg/kg po, 4 hours",134%
same,Na+/K+,Wistar rats; [3],1.85
same,Increase in amount of K+ excreted,"Wistar rats; 1.6 mg/kg po, 4 hours",15%
same,Increase in amount of Na+ excreted,"Wistar rats; 1.6 mg/kg po, 4 hours",220%
same,Increase in amount of urine,"Wistar rats; 1.6 mg/kg po, 4 hours",297%
same,Na+/K+,Wistar rats; [4],2.77
same,Amount of creatinine in serum,[1]; [5],1.88 ± 0.20 mg/dL
same,Amount of urea-nitrogen in serum,[1]; [6],58.0 ± 8.8 mg/dL
"NS(=O)(=O)c1cc(C(=O)O)c(NCc2ccco2)cc1Cl [furosemide, reference compound]",effect on increases in serum creatinine and serum urea-nitrogen,[1],a tendancy of deterioration
"CCCn1c(=O)c2[nH]c([C@]34C[C@@H]5[C@@H](O)[C@H](C3)[C@H]3[C@@H]5[C@H]34)nc2n(CCC)c1=O [Compound 5, 8-(Trans-9-hydroxy-3-tetracyclo[3.3.1.0^3,7 .0^6,8]-nonyl)-1,3-dipropylxanthine]",pKi,adenosine A1 receptor,9.51
same,Increase in amount of K+ excreted,"Wistar rats; 0.0025 mg/kg po, 4 hours",8%
same,Increase in amount of Na+ excreted,"Wistar rats; 0.0025 mg/kg po, 4 hours",68%
same,Increase in amount of urine,"Wistar rats; 0.0025 mg/kg po, 4 hours",77%
same,Na+/K+,"Wistar rats; 0.0025 mg/kg po, 4 hours, control 1.00",1.56
same,Increase in amount of K+ excreted,"Wistar rats; 0.1 mg/kg po, 4 hours",23%
same,Increase in amount of Na+ excreted,"Wistar rats; 0.1 mg/kg po, 4 hours",277%
same,Increase in amount of urine,"Wistar rats; 0.1 mg/kg po, 4 hours",256%
same,Na+/K+,Wistar rats; [3],3.07
same,Amount of creatinine in serum,"[1]; 0.01 mg/kg ip, 24 hours after glycerol, control 3.90 ± 0.24, ***p < 0.001",2.18 ± 0.11 mg/dL
same,Amount of urea-nitrogen in serum,"[1]; 0.01 mg/kg ip, 24 hours after glycerol, control 124.9 ± 7.5, ***p < 0.001",61.3 ± 6.1 mg/dL
"CCCn1c(=O)c2[nH]c(C34CC5CC3CC(O)(C5)C4)nc2n(CCC)c1=O (stereo not drawn) [Compound 3, 8-(1-hydroxy-3-tricyclo[3.3.1.0^3,7]nonyl)-1,3-dipropylxanthine]",pKi,adenosine A1 receptor,9.30
same,Increase in amount of K+ excreted,"Wistar rats; 0.025 mg/kg po, 4 hours",32%
same,Increase in amount of Na+ excreted,"Wistar rats; 0.025 mg/kg po, 4 hours",238%
same,Increase in amount of urine,"Wistar rats; 0.025 mg/kg po, 4 hours",324%
same,Na+/K+,"Wistar rats; 0.025 mg/kg po, 4 hours, control 1.00",2.55
same,Increase in amount of K+ excreted,"Wistar rats; 0.1 mg/kg po, 4 hours",18%
same,Increase in amount of Na+ excreted,"Wistar rats; 0.1 mg/kg po, 4 hours",272%
same,Increase in amount of urine,"Wistar rats; 0.1 mg/kg po, 4 hours",356%
same,Na+/K+,Wistar rats; [3],3.15
same,Amount of creatinine in serum,"[1]; 0.03 mg/kg ip, 24 hours after glycerol, control 3.57 ± 0.21, ***p < 0.001",1.64 ± 0.17 mg/dL
same,Amount of urea-nitrogen in serum,"[1]; 0.03 mg/kg ip, 24 hours after glycerol, control 149.7 ± 7.0, ***p < 0.001",49.0 ± 6.9 mg/dL
